Measurements reported in publication PMC6457190, “Tridecaptin-inspired antimicrobial peptides with activity against multidrug-resistant Gram-negative bacteria” (MedChemComm, 2019).
Where a SMILES comes first, the peptide text is derived from it. [ ]: non-standard residue; d: D form. The star is where a group is joined. dOrn = NCCC[C@@H](N)C(=O)O; Octanoyl = CCCCCCCC(=O)*; Orn = NCCC[C@H](N)C(=O)O

Columns and labels:
[1] = system: E. cloacae; type: cell-based, Enterobacter cloacae; conditions: 18 h
Experimental: (§1) IV. Antimicrobial testing
(§2) All minimum inhibitory concentrations (MICs) were determined according to Clinical and Standards Laboratory Institute (CLSI) guidelines. Briefly, peptides were dissolved in Muller-Hinton Broth (MHB) and serial dilutions made across a 96 well plate. Each well was inoculated with a suspension of the required bacterial strain to reach a final inoculum of 5 x 10^5 colony forming units per mL. The MIC was taken as the lowest concentration with no visible growth after 18 hours.

[2] = system: A. baumannii ACM 11; type: cell-based, Acinetobacter baumannii; conditions: ACM 11, 18 h
Experimental: as §1, §2
(§3) V. Additional information on multidrug resistant strains
(§4) Organism Resistant Susceptible
(§5) Acinetobacter baumannii ACM 11 Ceftazimide

[3] = system: P. pseudoalcaligenes; type: cell-based, Pseudomonas pseudoalcaligenes; conditions: 18 h
Experimental: as §1, §2

[4] = system: Equine erythrocytes; type: cell-based, horse; conditions: red cells of equine, 100 μg mL^–1
Experimental: Having assessed the antimicrobial activity of peptides 1–8 we next proceeded to assess their haemolytic activities (Table 2). Haemolytic activity was tested at 100 μg mL^–1, as the concentration required for haemolysis should be higher than antimicrobial MICs. Equine erythrocytes were exposed to peptides 1–8 and incubated for 30 min at 37 °C (Table 2). […] The low haemolytic activity observed for Oct-TriA2 (2,8-D-Lys, 7-Lys) (8) is consistent with its poor antimicrobial activity. […]
VI. Haemolytic activity assays
A 96-well plate was first prepared to contain phosphate-buffered saline (PBS) solutions (100 μL) of tridecaptin analogues 1 – 8 (200 μg/mL) (experiments run in triplicate). 0.1 % Triton X-100 (100 μL) was used as a positive control, while PBS (100 μL) was used as a blank. After the plate had been prepared, defibrinated horse blood (0.5 mL, VWR International) was diluted with phosphate-buffered saline (9.5 mL) and gently shaken. The resulting mixture was centrifuged (5600 rpm, 5 min) using a Thermo Scientific Heraeus Labofuge 200 centrifuge and the supernatant carefully removed. This process was repeated three more times to remove any free hemoglobin. The resulting erythrocyte pellet was gently resuspended in 9.5 mL of PBS. Aliquots of the resulting mixture (100 μL) were added to the appropriate wells on the 96-well plate using a multichannel pipette and the plate incubated at 37 °C for 30 min. The samples were gently mixed by pipetting, and 20 μL of each was added to 200 μL of PBS. Once again, the samples were gently mixed. The diluted samples were then centrifuged (7000 rpm, 5 min) using a SciSpin MINI Microfuge. Supernatant (150 μL) from each sample was added to a new 96-well plate. The absorbance of each sample was individually measured at 415 nm using a Denovix DS-11 FX+ Spectrophotometer. Percent hemolysis of the peptides was calculated relative to Triton X- 100, while the PBS negative control was used as a blank.

[5] = system: K. pneumoniae IMP 485; type: cell-based, Klebsiella pneumoniae; conditions: IMP 485, 18 h
Experimental: as §1, §2

[6] = system: K. pneumoniae IMP 216; type: cell-based, Klebsiella pneumoniae; conditions: IMP 216, 18 h
Experimental: as §1, §2

[7] = system: K. pneumoniae IMP 177; type: cell-based, Klebsiella pneumoniae; conditions: IMP 177, 18 h
Experimental: as §1, §2

[8] = system: K. pneumoniae IMP 170; type: cell-based, Klebsiella pneumoniae; conditions: IMP 170, 18 h
Experimental: as §1, §2

[9] = system: K. pneumoniae IMP 204; type: cell-based, Klebsiella pneumoniae; conditions: IMP 204, 18 h
Experimental: as §1, §2

[10] = system: K. pneumoniae; type: cell-based, Klebsiella pneumoniae; conditions: 18 h
Experimental: as §1, §2

[11] = system: A. baumannii ACM 29; type: cell-based, Acinetobacter baumannii; conditions: ACM 29, 18 h
Experimental: as §1, §2
V. Additional information on multidrug resistant strains […]
Organism Resistant Susceptible […]
(§6) Acinetobacter baumannii ACM 29 Ceftazimide
(§7) Isolated from peritoneum of 3-year- Imipenem

[12] = system: K. pneumoniae and E. cloacae strains; type: cell-based, Klebsiella pneumoniae, Enterobacter cloacae; conditions: 18 h
Experimental: The first amino acid substitution we explored was replacement of D-allo-Ile12 with D-Val, which occurs in natural TriA2 variants. Fmoc-D-Val is ∼30 times less expensive than Fmoc-D-allo-Ile (according to Fluorochem pricing). […] The minimum inhibitory concentrations (MICs) of Oct-TriA1 against K. pneumoniae and E. cloacae strains were typically 6.25 μg mL^–1 but […] against carbapenemase-producing A. baumannii strains (25 μg mL^–1).
(§8) MilliQ water and solvent B = 0.1 % TFA in ACN. A gradient method was employed, starting from 20 % B and 80 % A for 2 min, ramping up to 95 % B over 18 min, ramping down to 20 % B over 0.1 min before staying at 20 % B for 3.9 min. High resolution mass spectrometry (HRMS) spectra of all peptides were recorded by Analytical Services and Environmental Projects (ASEP) at Queen’s University Belfast on a Waters LCT Premier ToF mass spectrometer using the electrospray ionisation (ESI) technique.
as §1
as §2, with “The MIC was taken as the lowest concentration with no visible growth after 18 hours.” left out

[13] = system: A. baumannii; type: cell-based, Acinetobacter baumannii; conditions: 18 h
Experimental: as §1, §2, §3, §4
Acinetobacter baumannii Cefotaxime Imipenem
Isolated from sewage contaminated Tetracycline Colistin water (Tripoli, Lebanon). Ofloxacin Tobramycin
as §5, §6, §7

[14] = system: K. pneumoniae strains; assay: MIC; type: cell-based, Klebsiella pneumoniae; conditions: against the K. pneumoniae strains
Source text: (§9) We next proceeded to replace the D-Dab and L-Dab residues, found at positions 2 and 8, and 7 respectively. […] It was previously shown that D-Dab8 is essential for antimicrobial activity,[18] and an experimentally derived model of Oct-TriA1 bound to its cellular receptor, the peptidoglycan intermediate lipid II, supports this observation.[12] Therefore we first prepared peptides in which only the amino acids at positions 2 and 7 were substituted with Lys or Orn (D/L configuration retained). […] Finally, the Lys/Orn substitutions at the 2, 7 and 8 positions were also incorporated into TriA2 analogues, yielding Oct-TriA2 (2,8-D-Orn, 7-Orn) (7) and Oct-TriA2 (2,8-D-Lys, 7-Lys) (8).
as §8, §1
(§10) All minimum inhibitory concentrations (MICs) were determined according to Clinical and Standards Laboratory Institute (CLSI) guidelines. […]

[15] = system: A. baumannii strains; assay: MIC; type: cell-based, Acinetobacter baumannii; conditions: against the A. baumannii strains
Source text: as §9, §8, §1, §10

| Structure (SMILES) | Peptide MIC [1] [μg mL^–1] | Peptide MIC [2] [μg mL^–1] | Peptide MIC [3] [μg mL^–1] | % haemolysis [4] [%] | Peptide MIC [5] [μg mL^–1] | Peptide MIC [6] [μg mL^–1] | Peptide MIC [7] [μg mL^–1] | Peptide MIC [8] [μg mL^–1] | Peptide MIC [9] [μg mL^–1] | Peptide MIC [10] [μg mL^–1] | Peptide MIC [11] [μg mL^–1] | minimum inhibitory concentrations (MICs), typical value [12] [μg mL^–1] | Peptide MIC [13] [μg mL^–1] | antimicrobial activity relative to Oct-TriA1 [14] | antimicrobial activity relative to Oct-TriA1 [15] |
| --- | --- | --- | --- | --- | --- | --- | --- | --- | --- | --- | --- | --- | --- | --- | --- |
| CCCCCCCC(=O)N[C@@H](C(=O)N[C@H](CCN)C(=O)NCC(=O)N[C@H](CO)C(=O)N[C@H](Cc1c[nH]c2ccccc12)C(=O)N[C@@H](CO)C(=O)N[C@@H](CCN)C(=O)N[C@H](CCN)C(=O)N[C@@H](Cc1ccccc1)C(=O)N[C@@H](CCC(=O)O)C(=O)N[C@H](C(=O)N[C@@H](C(=O)N[C@@H](C)C(=O)O)[C@@H](C)CC)C(C)C)C(C)C [Peptide 1, Oct-TriA1, reference compound] | 3.13 | 25 | 50 | 89.6 | 6.25 | 6.25 | 6.25 | 6.25 | 12.5 | 6.25 | 25 | ~6.25 | 12.5 | – | – |
| CCCCCCCC(=O)N[C@@H](C(=O)N[C@H](CCCN)C(=O)NCC(=O)N[C@H](CO)C(=O)N[C@H](Cc1c[nH]c2ccccc12)C(=O)N[C@@H](CO)C(=O)N[C@@H](CCCN)C(=O)N[C@H](CCCN)C(=O)N[C@@H](Cc1ccccc1)C(=O)N[C@@H](CCC(=O)O)C(=O)N[C@H](C(=O)N[C@@H](C(=O)N[C@@H](C)C(=O)O)C(C)C)C(C)C)C(C)C [Peptide 7, Oct-TriA2 (2,8-D-Orn, 7-Orn)] (Octanoyl-[dV][dOrn]G[dS][dW]S[Orn][dOrn]FEV[dV]A-OH) | 12.5 | 25 | 6.25 | 39.8 | 12.5 | 12.5 | 12.5 | 25 | 12.5 | 50 | 50 | – | 25 | two- to four-fold less active | comparable activity |
